In the supplement of paper PMC10307832:

Experiments:
Test in all cases: relative viability (nuclei count vs DMSO), 5 days (fraction); higher = more cells survive
[1] = tested on: BEN
In short: (§1)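 Five library-drug doses in √10 steps were combined with a fixed anchor-drug dose, or a single drug was given alone, by pin tool to lung cancer cell lines in 1536-well plates the day after seeding. Nuclei were stained and counted after 5 days. Relative viability is the nuclei count in treated wells over that in vehicle wells, taken as the median of duplicate plates.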

[2] = tested on: COR-L 105
In short: as §1

[3] = tested on: COR-L23
In short: as §1

[4] = tested on: EKVX
In short: as §1

[5] = tested on: HCC-15
In short: as §1

[6] = tested on: HCC-366
In short: as §1

[7] = tested on: HCC-827
In short: as §1

[8] = tested on: LC-2-ad
In short: as §1

[9] = tested on: LCLC-97TM1
In short: as §1

[10] = tested on: LU99A
In short: as §1

[11] = tested on: NCI-H1755
In short: as §1

[12] = tested on: NCI-H1915
In short: as §1

[13] = tested on: NCI-H1944
In short: as §1

[14] = tested on: NCI-H1993
In short: as §1

[15] = tested on: NCI-H2342
In short: as §1

[16] = tested on: NCI-H3122
In short: as §1

[17] = tested on: NCI-H522
In short: as §1

[18] = tested on: NCI-H596
In short: as §1

[19] = tested on: PC-3 [JPC-3]
In short: as §1

[20] = tested on: RERF-LC-KJ
In short: as §1

[21] = tested on: SK-LU-1
In short: as §1

[22] = tested on: SK-MES-1
In short: as §1

Work on `COCC1(CO)C(=O)C2CCN1CC2` (stereo not given) [PRIMA-1MET] + COc1cccc2cc(-c3nc([C@H]4CC[C@H](C(=O)O)CC4)n4ncnc(N)c34)[nH]c12 [OSI-027] (partner 0.5 µM) yielded a relative viability ([1]; first compound 0.2 µM) of 0.283, a relative viability ([1]; first compound 0.6325 µM) of 0.304 and a relative viability ([1]; first compound 6.325 µM) of 0.287. It also gave a relative viability ([1]; first compound 20 µM) of 0.336, a relative viability ([2]; first compound 0.2 µM) of 0.899 and a relative viability ([2]; first compound 0.6325 µM) of 0.66. The relative viability ([2]; first compound 2 µM) was 0.488, the relative viability ([2]; first compound 6.325 µM) was 0.662 and the relative viability ([2]; first compound 20 µM) was 0.0915. It also gave a relative viability ([3]; first compound 0.2 µM) of 0.892, a relative viability ([3]; first compound 0.6325 µM) of 0.679 and a relative viability ([3]; first compound 2 µM) of 0.728. For the same compound, the relative viability ([3]; first compound 6.325 µM) was 0.744, the relative viability ([3]; first compound 20 µM) was 0.0162 and the relative viability ([4]; first compound 0.2 µM) was 0.915. The relative viability ([4]; first compound 0.6325 µM) was 0.723, the relative viability ([4]; first compound 6.325 µM) was 0.78 and the relative viability ([4]; first compound 20 µM) was 0.695. The relative viability ([5]; first compound 0.2 µM) was 0.534, the relative viability ([5]; first compound 0.6325 µM) was 0.616 and the relative viability ([5]; first compound 2 µM) was 0.526. For the same compound, the relative viability ([5]; first compound 6.325 µM) was 0.559, the relative viability ([5]; first compound 20 µM) was 0.439 and the relative viability ([6]; first compound 0.2 µM) was 0.389. It also gave a relative viability ([6]; first compound 0.6325 µM) of 0.725, a relative viability ([6]; first compound 2 µM) of 0.303 and a relative viability ([6]; first compound 6.325 µM) of 1.01. The relative viability ([6]; first compound 20 µM) was 0.927, the relative viability ([7]; first compound 0.2 µM) was 0.694 and the relative viability ([7]; first compound 0.6325 µM) was 0.668. The relative viability ([7]; first compound 2 µM) was 0.625, the relative viability ([7]; first compound 6.325 µM) was 0.784 and the relative viability ([7]; first compound 20 µM) was 0.748. It also gave a relative viability ([8]; first compound 0.2 µM) of 0.854, a relative viability ([8]; first compound 2 µM) of 0.729 and a relative viability ([8]; first compound 6.325 µM) of 0.898. The relative viability ([8]; first compound 20 µM) was 0.819, the relative viability ([9]; first compound 0.2 µM) was 0.306 and the relative viability ([9]; first compound 0.6325 µM) was 0.554. For the same compound, the relative viability ([9]; first compound 2 µM) was 0.582, the relative viability ([9]; first compound 6.325 µM) was 0.364 and the relative viability ([9]; first compound 20 µM) was 0.438. The relative viability ([10]; first compound 0.2 µM) was 0.322, the relative viability ([10]; first compound 0.6325 µM) was 0.29 and the relative viability ([10]; first compound 2 µM) was 0.292. The relative viability ([10]; first compound 6.325 µM) was 0.268, the relative viability ([10]; first compound 20 µM) was 0.0893 and the relative viability ([11]; first compound 0.2 µM) was 0.664. For the same compound, the relative viability ([11]; first compound 0.6325 µM) was 0.668, the relative viability ([11]; first compound 2 µM) was 0.402 and the relative viability ([11]; first compound 6.325 µM) was 0.682. The relative viability ([11]; first compound 20 µM) was 0.673, the relative viability ([12]; first compound 0.2 µM) was 0.475 and the relative viability ([12]; first compound 0.6325 µM) was 0.582. The relative viability ([12]; first compound 6.325 µM) was 0.443, the relative viability ([12]; first compound 20 µM) was 0.578 and the relative viability ([13]; first compound 0.2 µM) was 0.408. The relative viability ([13]; first compound 0.6325 µM) was 0.359, the relative viability ([13]; first compound 2 µM) was 0.3 and the relative viability ([13]; first compound 6.325 µM) was 0.409. It also gave a relative viability ([13]; first compound 20 µM) of 0.393, a relative viability ([14]; first compound 0.2 µM) of 0.569 and a relative viability ([14]; first compound 0.6325 µM) of 0.561. The relative viability ([14]; first compound 2 µM) was 0.518, the relative viability ([14]; first compound 6.325 µM) was 0.532 and the relative viability ([14]; first compound 20 µM) was 0.49. For the same compound, the relative viability ([15]; first compound 0.2 µM) was 0.598, the relative viability ([15]; first compound 0.6325 µM) was 0.59 and the relative viability ([15]; first compound 2 µM) was 0.483. It also gave a relative viability ([15]; first compound 6.325 µM) of 0.595, a relative viability ([15]; first compound 20 µM) of 0.565 and a relative viability ([16]; first compound 0.2 µM) of 0.594. It also gave a relative viability ([16]; first compound 0.6325 µM) of 0.871, a relative viability ([16]; first compound 6.325 µM) of 0.74 and a relative viability ([16]; first compound 20 µM) of 0.831. It also gave a relative viability ([17]; first compound 0.2 µM) of 0.647, a relative viability ([17]; first compound 0.6325 µM) of 0.671 and a relative viability ([17]; first compound 2 µM) of 0.596. The relative viability ([17]; first compound 6.325 µM) was 0.836, the relative viability ([17]; first compound 20 µM) was 0.13 and the relative viability ([18]; first compound 0.2 µM) was 0.747. For the same compound, the relative viability ([18]; first compound 0.6325 µM) was 0.635, the relative viability ([18]; first compound 2 µM) was 0.457 and the relative viability ([18]; first compound 6.325 µM) was 0.893. For the same compound, the relative viability ([18]; first compound 20 µM) was 0.645, the relative viability ([19]; first compound 0.2 µM) was 0.709 and the relative viability ([19]; first compound 0.6325 µM) was 0.747. The relative viability ([19]; first compound 2 µM) was 0.816, the relative viability ([19]; first compound 6.325 µM) was 0.77 and the relative viability ([19]; first compound 20 µM) was 0.792. The relative viability ([20]; first compound 0.2 µM) was 0.56, the relative viability ([20]; first compound 0.6325 µM) was 0.625 and the relative viability ([20]; first compound 2 µM) was 0.54. The relative viability ([20]; first compound 6.325 µM) was 0.662, the relative viability ([20]; first compound 20 µM) was 0.588 and the relative viability ([21]; first compound 0.2 µM) was 0.321. The relative viability ([21]; first compound 0.6325 µM) was 0.375, the relative viability ([21]; first compound 2 µM) was 0.256 and the relative viability ([21]; first compound 6.325 µM) was 0.338. The relative viability ([21]; first compound 20 µM) was 0.0616, the relative viability ([22]; first compound 0.2 µM) was 0.65 and the relative viability ([22]; first compound 0.6325 µM) was 0.711. For the same compound, the relative viability ([22]; first compound 2 µM) was 0.543, the relative viability ([22]; first compound 6.325 µM) was 0.633 and the relative viability ([22]; first compound 20 µM) was 0.436.
